Nc1ccc(Cl)nn1
Conditions | solubility (mole fraction)
in DMF, 298.45 K | 0.0353
in DMF, 303.35 K | 0.0401
in DMF, 308.15 K | 0.0455
in DMF, 313.35 K | 0.0522
in DMF, 318.15 K | 0.0592
in DMF, 323.25 K | 0.0647
in DMF, 328.35 K | 0.0705
in DMF, 333.45 K | 0.0768
in DMF, 337.95 K | 0.083
in DMF, 343.05 K | 0.0904
in acetone, 298.15 K | 0.00338
in acetone, 303.15 K | 0.00423
in acetone, 308.15 K | 0.00513
in acetone, 313.25 K | 0.00597
in acetone, 318.15 K | 0.00682
in acetone, 323.15 K | 0.00791
in acetone, 328.15 K | 0.00871
in cyclohexanone, 298.25 K | 0.00455
in cyclohexanone, 303.25 K | 0.0053
in cyclohexanone, 308.15 K | 0.00643
in cyclohexanone, 313.15 K | 0.00782
in cyclohexanone, 318.25 K | 0.00889
in cyclohexanone, 323.05 K | 0.0107
in cyclohexanone, 328.15 K | 0.0125
in cyclohexanone, 333.15 K | 0.015
in cyclohexanone, 338.25 K | 0.0174
in cyclohexanone, 343.15 K | 0.02
in ethanol, 298.15 K | 0.00206
in ethanol, 303.25 K | 0.00271
in ethanol, 308.15 K | 0.00318
in ethanol, 313.15 K | 0.00405
in ethanol, 318.15 K | 0.005
in ethanol, 323.15 K | 0.006
in ethanol, 328.15 K | 0.00702
in ethanol, 333.15 K | 0.00848
in ethanol, 338.15 K | 0.00994
in ethanol, 342.85 K | 0.0113
in ethyl acetate, 298.45 K | 0.00133
in ethyl acetate, 303.35 K | 0.00166
in ethyl acetate, 308.15 K | 0.00194
in ethyl acetate, 313.15 K | 0.00227
in ethyl acetate, 318.25 K | 0.00263
in ethyl acetate, 323.25 K | 0.00319
in ethyl acetate, 328.15 K | 0.00358
in ethyl acetate, 333.15 K | 0.00413
in ethyl acetate, 338.35 K | 0.00479
in ethyl acetate, 343.15 K | 0.0053
in methanol, 298.15 K | 0.00388
in methanol, 303.35 K | 0.00444
in methanol, 308.05 K | 0.00525
in methanol, 313.15 K | 0.00605
in methanol, 318.15 K | 0.00721
in methanol, 322.95 K | 0.00824
in methanol, 328.55 K | 0.00936
in methanol, 332.45 K | 0.0107
in n-butanol, 296.55 K | 0.00171
in n-butanol, 302.95 K | 0.00224
in n-butanol, 309.85 K | 0.00315
in n-butanol, 313.05 K | 0.00357
in n-butanol, 318.25 K | 0.00428
in n-butanol, 322.95 K | 0.00498
in n-butanol, 328.15 K | 0.00629
in n-butanol, 333.45 K | 0.00741
in n-butanol, 338.35 K | 0.00871
in n-butanol, 343.15 K | 0.0102
in toluene, 298.15 K | 5.02e-05
in toluene, 303.25 K | 6.73e-05
in toluene, 308.15 K | 8.17e-05
in toluene, 313.35 K | 0.000116
in toluene, 318.15 K | 0.000155
in toluene, 323.25 K | 0.000202
in toluene, 328.35 K | 0.00025
in toluene, 333.15 K | 0.000293
in toluene, 338.35 K | 0.000352
in toluene, 343.55 K | 0.000454

Source: BigSolDB 2.1
